Test results from patent publication US20180215734A1, “PYRIMIDINE DERIVATIVES AS KINASE INHIBITORS AND THEIR THERAPEUTICAL APPLICATIONS” (NantBioScience, Inc., priority 2016, published 2018).
Where two headings read alike, the source gives them in different places.

Assays:
FGFR1(h) = FGFR1(h) (Homo sapiens, UniProt P11362); experiment: Kinase assay, FGFR1(h); assay type: biochemical; conditions: 1 μM
Method: (§1) Kinase assay protocols well known to those of ordinary skill in the art were used. Specifically, the buffer composition was as follows: 20 mM MOPS, 1 mM EDTA, 0.01% Brij-35, 5% Glycerol, 0.1% β-mercaptoethanol, 1 mg/mL BSA. Test compounds were initially dissolved in DMSO at the desired concentration, then serially diluted to the kinase assay buffer. In a final reaction volume of 25 μL FGFR1(h) (5-10 mU) and KDR(h) (5-10 mU) are incubated with 8 mM MOPS pH 7.0, 0.2 mM EDTA, 200 μM LRRASLG (Kemptide), 10 mM magnesium acetate and [γ^33P-ATP]. The reaction was initiated by the addition of the MgATP mix. After incubation for 40 minutes at room temperature, the reaction was stopped by addition of 5 μL of a 3% phosphoric acid solution. Ten L of the reaction was then spotted onto a P30 filter mat and washed three times for 5 minutes in 50 mM phosphoric acid and once in methanol prior to drying and scintillation counting. Wells containing substrate but no kinase and wells containing a phosphopeptide control were used to set 0% and 100% phosphorylation value, respectively.
(§2) Of all of the steps in developing a drug, the hardest is finding promising compounds. (See, e.g., Malo et al., “Statistical practice in high-throughput screening data analysis,” Nature Biotechnology, 2006, 24, 167-75.) Kinase inhibitors often also have an anti-proliferative effect. […] The kinase inhibitory activity Compound 19 was tested using the kinase assay described in Example 3. […] These mutations in the tested kinases are thought to play an important role in transformation of some cancers.

KDR(h) = KDR(h) (Homo sapiens, UniProt P35968); experiment: Kinase assay, KDR(h); assay type: biochemical
Sequence of KDR(h) (P35968 20-1356): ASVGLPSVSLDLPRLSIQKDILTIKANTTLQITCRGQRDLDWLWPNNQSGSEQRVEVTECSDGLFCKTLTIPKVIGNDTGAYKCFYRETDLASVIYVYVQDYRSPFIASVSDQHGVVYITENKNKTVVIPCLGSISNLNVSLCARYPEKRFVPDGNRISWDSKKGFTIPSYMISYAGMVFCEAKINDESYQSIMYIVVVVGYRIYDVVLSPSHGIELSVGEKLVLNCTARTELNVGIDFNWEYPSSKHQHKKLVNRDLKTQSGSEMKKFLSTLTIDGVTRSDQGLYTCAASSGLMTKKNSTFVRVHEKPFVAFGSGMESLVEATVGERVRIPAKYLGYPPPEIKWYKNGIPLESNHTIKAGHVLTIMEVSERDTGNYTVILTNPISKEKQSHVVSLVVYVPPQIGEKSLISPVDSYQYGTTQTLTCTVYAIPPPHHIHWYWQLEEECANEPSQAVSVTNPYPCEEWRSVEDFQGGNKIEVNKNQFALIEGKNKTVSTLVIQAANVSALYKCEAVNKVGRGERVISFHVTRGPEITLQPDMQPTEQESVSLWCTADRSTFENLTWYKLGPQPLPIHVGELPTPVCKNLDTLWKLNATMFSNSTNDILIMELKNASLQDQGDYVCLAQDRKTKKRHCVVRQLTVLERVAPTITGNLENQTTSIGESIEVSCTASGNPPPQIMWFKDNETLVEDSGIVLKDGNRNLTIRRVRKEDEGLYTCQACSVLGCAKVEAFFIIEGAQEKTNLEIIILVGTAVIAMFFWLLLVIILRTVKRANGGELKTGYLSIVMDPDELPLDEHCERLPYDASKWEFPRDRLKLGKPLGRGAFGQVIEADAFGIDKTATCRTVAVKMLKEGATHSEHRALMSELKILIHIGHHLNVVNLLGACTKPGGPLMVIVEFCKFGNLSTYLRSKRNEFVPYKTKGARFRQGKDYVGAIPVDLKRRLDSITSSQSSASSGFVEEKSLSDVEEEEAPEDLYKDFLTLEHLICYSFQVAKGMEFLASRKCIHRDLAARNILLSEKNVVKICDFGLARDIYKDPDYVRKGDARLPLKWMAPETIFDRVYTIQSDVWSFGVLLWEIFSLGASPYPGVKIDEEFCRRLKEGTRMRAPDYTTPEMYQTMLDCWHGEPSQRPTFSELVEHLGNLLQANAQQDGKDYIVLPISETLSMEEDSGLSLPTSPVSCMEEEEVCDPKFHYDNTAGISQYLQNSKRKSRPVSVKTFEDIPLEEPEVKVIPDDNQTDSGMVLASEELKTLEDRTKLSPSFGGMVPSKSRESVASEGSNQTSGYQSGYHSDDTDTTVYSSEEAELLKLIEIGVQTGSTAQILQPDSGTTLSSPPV
Method: as §1, §2

KG1a = experiment: Inhibition of proliferation (CellTiterblue, 72 hr), KG1a; assay type: cell-based, human; conditions: 72 hr
Method: (§3) A number of studies were performed to analyze the consequences of tyrosine kinase inhibition in cell lines. To do this, 1000 cells are seeded in 27 μl/well in 384-well microplates, which are then placed in a humidified CO2 incubator at 37° C. overnight. The next day, 3 μl/well of 10× concentrated drug is added and the plates are returned to the incubator for 72 hr. After 72 hr incubation, plates are removed and 6 μl/well CellTiterblue (Promega) viability reagent is added. Plates are returned to the incubator for 3 hrs, after which fluorescence measurements are read on the Victor X3 plate reader (Perkin Elmer). Data are analyzed using Excel (Microsoft), and GI50 values are determined using Prism (Graphpad).

SNU16 = experiment: Inhibition of proliferation (CellTiterblue, 72 hr), SNU16; assay type: cell-based
Method: as §3

Kato III = experiment: Inhibition of proliferation (CellTiterblue, 72 hr), Kato III; assay type: cell-based
Method: as §3

RT112 = experiment: Inhibition of proliferation (CellTiterblue, 72 hr), RT112; assay type: cell-based
Method: as §3

TG1a Human AML Xenograft = experiment: Antitumor efficacy on TG1a human AML xenograft; assay type: in vivo, mouse; conditions: 20 mg/kg, Qdx10, IP
Method: In this Example the antitumor activity of compounds 14, 17, 19, 45, and 48 of the current invention are tested using an art-recognized xenograft model of AML. (“T/C” refers to the ratio of the tumor's size in treated animals versus the tumor size in control untreated animals. “BWC” refers to “body weight change”).

[1] = Metabolic stability, human liver microsomes; assay type: in vitro ADME
[2] = Metabolic stability, rat liver microsomes; assay type: in vitro ADME
[3] = Metabolic stability, mouse liver microsomes; assay type: in vitro ADME

Sequence of FGFR1(h) (P11362 22-822): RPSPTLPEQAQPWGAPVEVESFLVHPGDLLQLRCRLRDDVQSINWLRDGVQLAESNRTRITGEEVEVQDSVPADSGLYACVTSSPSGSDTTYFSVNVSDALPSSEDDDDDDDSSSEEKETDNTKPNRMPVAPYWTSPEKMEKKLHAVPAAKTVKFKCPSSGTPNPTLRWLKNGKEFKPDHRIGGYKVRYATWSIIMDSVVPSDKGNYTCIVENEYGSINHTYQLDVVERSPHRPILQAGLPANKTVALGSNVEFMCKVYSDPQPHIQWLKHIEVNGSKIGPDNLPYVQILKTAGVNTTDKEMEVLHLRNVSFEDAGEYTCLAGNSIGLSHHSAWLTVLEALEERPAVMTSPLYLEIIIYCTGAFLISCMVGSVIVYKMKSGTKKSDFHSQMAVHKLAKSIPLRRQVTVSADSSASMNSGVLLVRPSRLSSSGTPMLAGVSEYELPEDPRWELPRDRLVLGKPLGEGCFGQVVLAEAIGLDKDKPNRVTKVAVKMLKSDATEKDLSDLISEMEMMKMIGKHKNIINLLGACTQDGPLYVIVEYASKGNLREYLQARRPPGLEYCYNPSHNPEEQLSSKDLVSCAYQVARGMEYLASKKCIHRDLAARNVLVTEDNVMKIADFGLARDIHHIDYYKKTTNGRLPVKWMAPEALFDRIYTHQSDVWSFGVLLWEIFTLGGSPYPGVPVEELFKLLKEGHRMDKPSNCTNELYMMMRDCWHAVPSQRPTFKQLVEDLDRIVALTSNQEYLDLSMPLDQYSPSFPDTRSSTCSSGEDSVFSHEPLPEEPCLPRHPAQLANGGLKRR

| Structure (SMILES) | inhibition at 1 µM (FGFR1(h)) [%] | inhibition at 1 µM (KDR(h)) [%] | GI50 (KG1a; Homo sapiens, KG-1a) [nM] | GI50 (SNU16; Homo sapiens, SNU-16, 72 h) [nM] | GI50 (Kato III; Homo sapiens, KATO III, 72 h) [nM] | GI50 (RT112; Homo sapiens, RT-112, 72 h) [nM] | other results |
| --- | --- | --- | --- | --- | --- | --- | --- |
| Cc1cc2c(F)c(Oc3ncnc(Nc4ccc(N5C[C@@H](C)N(C)[C@@H](C)C5)cc4)c3C#N)cc(F)c2[nH]1 [Compound 45] | 101 | 73 | 0.43 | 15 | 79 | 37 | BWC (%) (TG1a Human AML Xenograft): −11.7%; T/C (%) (day14) (TG1a Human AML Xenograft): 4.9% |
| Cc1cc2c(F)c(Oc3ncnc(Nc4ccc(N5CCN6CCCC6C5)cc4)c3C#N)cc(F)c2[nH]1 (stereo not drawn) [Compound 50] | 101 | 88 | 2.91 | 52 | 174 | 49 | – |
| Cc1cc2c(F)c(Oc3ncnc(Nc4ccc(N5CCN[C@@H](C)C5)cc4)c3C#N)cc(F)c2[nH]1 [Compound 33] | 101 | 89 | 0.28 | 12 | 88 | – | GI50 (RT112): 126 nM |
| C=CC(=O)Nc1cccc(Nc2ncnc(Oc3cc(F)c4[nH]c(C)cc4c3F)c2C#N)c1 [Compound 53] | 100 | 93 | 3.59 | 28 | 152 | 94 | – |
| Cc1nc(Nc2ncc(C(=O)Nc3c(C)cccc3Cl)s2)cc(N2CCN(CCO)CC2)n1 [DASATINIB, dasatinib, reference compound] | – | – | – | – | – | – | half-life [1]: 7.5 min; half-life [2]: 11.9 min; half-life [3]: 9.2 min |
| Cc1cc2c(F)c(Oc3ncnc(Nc4ccc(N5CCN(C)C(C)C5)cc4)c3C#N)cc(F)c2[nH]1 (stereo not drawn) [Compound 46] | 101 | 90 | 1.37 | 22 | 111 | 48 | – |
| Cc1cc2c(F)c(Oc3ncnc(Nc4ccc(N5CCNCC5)cc4)c3C#N)cc(F)c2[nH]1 [Compound 14] | 99 | 93 | 1.6 | 23 | 137 | 76 | BWC (%) (TG1a Human AML Xenograft): −4.0%; T/C (%) (day14) (TG1a Human AML Xenograft): −60.6% |
| C=CC(=O)Nc1ccc(Nc2ncnc(Oc3cc(F)c4[nH]c(C)cc4c3F)c2C#N)cc1 [Compound 56] | 101 | 94 | 5.59 | 24 | 106 | 134 | – |
| Cc1cc2c(F)c(Oc3ncnc(Nc4ccc(NC(=O)CN5CCN(C)CC5)cc4)c3C#N)cc(F)c2[nH]1 [Compound 59] | – | – | 31 | 79 | – | – | – |
| CCN1[C@H](C)CN(c2ccc(Nc3ncnc(Oc4cc(F)c5[nH]c(C)cc5c4F)c3C#N)cc2)C[C@@H]1C [Compound 47] | 101 | 74 | 0.5 | 22 | 123 | 48 | – |
| C/C=C/C(=O)Nc1ccc(Nc2ncnc(Oc3cc(F)c4[nH]c(C)cc4c3F)c2C#N)cc1 [Compound 60] | – | – | 101 | 92 | – | – | – |
| Cc1cc2c(F)c(Oc3ncnc(Nc4ccc(N5CCN[C@@H](C)C5)cc4)c3C#N)cc(F)c2[nH]1 [Compound 34] | – | – | – | – | – | – | % Inhibition at 1 μM FGFR1(h) (FGFR1(h)): 100%; % Inhibition at 1 μM KDR(h) (KDR(h); 1 μM): 89%; GI50 (KG1a): 0.28 nM; GI50 (SNU16): 22 nM; GI50 (Kato III): 98 nM; GI50 (RT112): 52 nM |
| Cc1cc2c(F)c(Oc3ncnc(Nc4ccc(N5CCN(CCO)CC5)cc4)c3C#N)cc(F)c2[nH]1 [Compound 31] | 102 | 95 | 0.35 | 32 | 205 | 171 | – |
| Cc1cc2c(F)c(Oc3ncnc(Nc4ccc(NC(=O)CN5CCOCC5)cc4)c3C#N)cc(F)c2[nH]1 [Compound 58] | – | – | 101 | 122 | – | – | – |
| Cc1cc2c(F)c(Oc3ncnc(Nc4ccc(N5[C@H](C)CNC[C@@H]5C)cc4)c3C#N)cc(F)c2[nH]1 [Compound 49] | 101 | 82 | 0.6 | 24 | 86 | 48 | – |
| CCN1CCN(c2ccc(Nc3ncnc(Oc4cc(F)c5[nH]c(C)cc5c4F)c3C#N)cc2)CC1C (stereo not drawn) [Compound 48] | 100 | 84 | 0.55 | 35 | 152 | 57 | BWC (%) (TG1a Human AML Xenograft): −3.8%; T/C (%) (day14) (TG1a Human AML Xenograft): −72.8% |
| Cc1cc2c(F)c(Oc3ncnc(Nc4ccc(N5C[C@@H](C)N[C@@H](C)C5)cc4)c3C#N)ccc2[nH]1 [Compound 17] | 100 | 96 | 0.74 | 20 | 113 | 83 | BWC (%) (TG1a Human AML Xenograft): −5.7%; T/C (%) (day14) (TG1a Human AML Xenograft): −79.5% |
| Cc1cc2c(F)c(Oc3ncnc(Nc4ccc(N5CCN6CCCCC6C5)cc4)c3C#N)cc(F)c2[nH]1 (stereo not drawn) [Compound 51] | 101 | 80 | 1.62 | 66 | 208 | 73 | – |
| CCC(=O)Nc1ccc(Nc2ncnc(Oc3cc(F)c4[nH]c(C)cc4c3F)c2C#N)cc1 [Compound 57] | – | – | 15 | 6 | – | – | – |
| Cc1cc2c(F)c(Oc3ncnc(Nc4ccc(N5C[C@@H](C)N[C@@H](C)C5)nc4)c3C#N)cc(F)c2[nH]1 [Compound 61] | – | – | 4 | 75 | – | – | – |
